# Laboratory results reported in patent US9744152B2, “Vitamins C and K for treating polycystic diseases” (IC-MedTech Corporation, priority 2010, dated 2017).
# Marks after values point to notes of the source that are not given here.
# Columns and labels:
# [1] = tested on: PCK rats; test: Body, liver and kidney weights in PCK rats after 6 weeks of treatment; assay type: in vivo, rat; conditions: for Kidney Weight / Kidney Weight (% bw) / Liver Weight / Liver Weight (% bw): 6 weeks in drinking water; for Body Weight: 6 weeks in drinking water (VC 15 g/L; VK3 0.15 g/L; APATONE® 15 g/L + 0.15 g/L)
# From the text: (§1) Thirty seven PCK rats (20 females and 17 males) at age of 3 weeks were divided into four groups: (i) vitamin C (VC) treatment group: 5 females and 4 males; (ii) vitamin K3 (VK3) treatment group: 5 females and 4 males; (iii) APATONE® treatment group: 6 females and 5 males; and (iv) control group: 4 females and 4 males. Similarly, twenty Pkd2^WS25/− mice (12 females and 8 males) at age of 5 months were divided into four groups: (i) vitamin C (VC) treatment group: 3 females; (ii) vitamin K3 (VK3) treatment group: 2 females and 2 males; (iii) APATONE® treatment group: 4 females and 3 males; and (iv) control group: 3 females and 3 males.
# (§2) The VC treatment groups were given vitamin C at a concentration of 15 g/L in drinking water. The VK3 treatment groups were given vitamin K3 at a concentration of 0.15 g/L in drinking water. The APATONE® treatment groups were given vitamins C and K3 at concentrations of 15 g/L and 0.15 g/L, respectively, in drinking water. The control groups were given drinking water only. Rats or mice in each group were allowed to drink freely.
# (§3) The rats and mice were sacrificed after 6 weeks of treatment. The following parameters were analyzed: body weights, liver and kidney weights, serum biochemistry, renal and hepatic cystic and fibrotic areas, apoptotic and proliferation indices, expression of Cdc25A and its down-stream targets. […]
# [2] = tested on: Pkd2^WS25/− mice; test: Body, liver and kidney weights in Pkd2^WS25/− mice after 6 weeks of treatment; assay type: in vivo, mouse; conditions: for Kidney Weight / Kidney Weight (%) / Liver Weight / Liver Weight (%): 6 weeks in drinking water; for Body Weight: 6 weeks in drinking water (VC 15 g/L; VK3 0.15 g/L; APATONE® 15 g/L + 0.15 g/L)
# From the text: as §1, §2, §3
Structure (SMILES),Kidney Weight ([1]; Female),Kidney Weight (% bw) ([1]; Female),Liver Weight ([1]; Female),Liver Weight (% bw) ([1]; Female),Body Weight ([1]; Female),Body Weight (g) Change vs Ctrl ([1]; Female),Kidney Weight (% bw) Change vs Ctrl ([1]; Female),Kidney Weight (g) Change vs Ctrl ([1]; Female),Liver Weight (% bw) Change vs Ctrl ([1]; Female),Liver Weight (g) Change vs Ctrl ([1]; Female),Kidney Weight ([1]; Male),Kidney Weight (% bw) ([1]; Male),Liver Weight ([1]; Male),Liver Weight (% bw) ([1]; Male),Body Weight ([1]; Male),Body Weight (g) Change vs Ctrl ([1]; Male),Kidney Weight (% bw) Change vs Ctrl ([1]; Male),Kidney Weight (g) Change vs Ctrl ([1]; Male),Liver Weight (% bw) Change vs Ctrl ([1]; Male),Liver Weight (g) Change vs Ctrl ([1]; Male),further results
"O=C1O[C@H]([C@@H](O)CO)C(O)=C1O [VC, L-ascorbic acid]",3.88 ± 0.19 g,1.47 ± 0.11 % bw,16.6 ± 1.3 g,6.36 ± 0.23 % bw,261 ± 10 g,−3.3%,−0.7%,−2.8%,0.8%,−2.8%,4.95 ± 0.18 g,1.19 ± 0.13 % bw,23.3 ± 1.8 g,5.61 ± 0.14 % bw,416 ± 13 g,0.8%,0%,1.2%,−1.2%,−0.4%,Kidney Weight [2]: 0.46 ± 0.04 g; Kidney Weight (%) [2]: 1.76 ± 0.16%; Liver Weight [2]: 2.29 ± 0.43 g; Liver Weight (%) [2]: 9.29 ± 2.01%; Body Weight [2]: 26.7 ± 2.0 g; Body Weight (g) Change vs Ctrl [2]: 1.5%; Kidney Weight (% bw) Change vs Ctrl [2]: −6.7%; Kidney Weight (g) Change vs Ctrl [2]: −6.1%; Liver Weight (% bw) Change vs Ctrl [2]: 15.4%; Liver Weight (g) Change vs Ctrl [2]: 8.0%
"CC1=CC(=O)c2ccccc2C1=O [VK3, menadione]",3.78 ± 0.09 g,1.36 ± 0.13 % bw,15.5 ± 0.6 g,5.60 ± 0.13 % bw,276 ± 9 g,2.2%,−8.1%*,−5.2%*,−11.3%*,−9.2%*,4.57 ± 0.13 g,1.11 ± 0.11 % bw,20.8 ± 0.5 g,5.12 ± 0.09 % bw,408 ± 16 g,−1.1%,−6.7%*,−6.5%*,−9.8%*,−10.9%*,Kidney Weight [2]: 0.42 ± 0.01 g; Kidney Weight (%) [2]: 1.53 ± 0.05%; Liver Weight [2]: 1.64 ± 0.15 g; Liver Weight (%) [2]: 5.87 ± 0.36%; Body Weight [2]: 27.9 ± 1.9 g; Body Weight (g) Change vs Ctrl [2]: 5.8%; Kidney Weight (% bw) Change vs Ctrl [2]: −19.0%*; Kidney Weight (g) Change vs Ctrl [2]: −14.3%*; Liver Weight (% bw) Change vs Ctrl [2]: −27.1%*; Liver Weight (g) Change vs Ctrl [2]: −22.6%*
